Columns and labels:
brain injured animals [1] = experiment: Barnes Circular Maze, cognitive outcome after brain injury; format: in vivo
Description: (§1) A number of commercially synthesized substance P receptor antagonists are currently available from standard scientific chemical suppliers, as is apparent form Tables 1, 2, and 3. We chose to use the compound N-acetyl-L-tryptophan based on its low lipid solubility that limits its ability to naturally cross the blood brain barrier and the fact that it is relatively inexpensive.

[2] = test system: blood brain barrier permeability; experiment: brain penetration of Evans blue after injury; format: in vivo; details: at 5 hours after injury (time of maximum blood brain barrier permeability)
Procedure: (§2) This was consistent with the observation that N-acetyl-L-tryptophan reduced brain penetration of Evans blue at 5 hours after injury: the time associated with maximum blood brain barrier permeability and reduced vasogenic oedema formation.

brain injured animals [3] = experiment: otarod test, motor outcome after brain injury; format: in vivo
Description: as §1

[4] = limits its ability to naturally cross the blood brain barrier; cited from earlier work
brain injured animals [5] = experiment: brain water accumulation (cerebral oedema) after injury; format: in vivo; details: at 24 hours after injury, compared to vehicle treated controls
Procedure: as §2

[6] = intravenous 246 mg/kg (saline vehicle) at 30 minutes after brain injury, apparent at 24 hours, persisted for 14 day assessment period, vs vehicle

Which results are given for CC(=O)N[C@@H](Cc1c[nH]c2ccccc12)C(=O)O [N-acetyl-L-tryptophan]?
cognitive outcome of brain injured animals (brain injured animals [1]; 24.6 mg/kg): significantly improved; cognitive outcome as assessed by the Barnes Circular Maze (brain injured animals [1]; [6]): significant improvement; brain penetration of Evans blue [2]: reduced; motor outcome (brain injured animals [3]; 24.6 mg/kg): less of a beneficial effect; motor outcome as assessed by the otarod test (brain injured animals [3]; [6]): significant improvement; lipid solubility [4]: low; brain water accumulation (i.e. cerebral oedema) (brain injured animals [5]): significant reduction
